Patent publication US12668591B2, “1,2,4-oxadiazole derivatives as histone deacetylase 6 inhibitors” (Oryzon Genomics, S.A., priority 2017, dated 2026)

Tests used:
[1] = molecular target: T1, HDAC6 (Homo sapiens, UniProt Q9UBN7); assay: In vitro cell-based assay: acetylation levels of Alpha-Tubulin by Western Blot in MOLP8 cells; design: endogenous in cells; host or cells: MOLP8; conditions: 18 h, acetyl-alpha-tubulin relative band intensity, ACY-1215 1 μM = 100%
T1 sequence (Q9UBN7 1-1215): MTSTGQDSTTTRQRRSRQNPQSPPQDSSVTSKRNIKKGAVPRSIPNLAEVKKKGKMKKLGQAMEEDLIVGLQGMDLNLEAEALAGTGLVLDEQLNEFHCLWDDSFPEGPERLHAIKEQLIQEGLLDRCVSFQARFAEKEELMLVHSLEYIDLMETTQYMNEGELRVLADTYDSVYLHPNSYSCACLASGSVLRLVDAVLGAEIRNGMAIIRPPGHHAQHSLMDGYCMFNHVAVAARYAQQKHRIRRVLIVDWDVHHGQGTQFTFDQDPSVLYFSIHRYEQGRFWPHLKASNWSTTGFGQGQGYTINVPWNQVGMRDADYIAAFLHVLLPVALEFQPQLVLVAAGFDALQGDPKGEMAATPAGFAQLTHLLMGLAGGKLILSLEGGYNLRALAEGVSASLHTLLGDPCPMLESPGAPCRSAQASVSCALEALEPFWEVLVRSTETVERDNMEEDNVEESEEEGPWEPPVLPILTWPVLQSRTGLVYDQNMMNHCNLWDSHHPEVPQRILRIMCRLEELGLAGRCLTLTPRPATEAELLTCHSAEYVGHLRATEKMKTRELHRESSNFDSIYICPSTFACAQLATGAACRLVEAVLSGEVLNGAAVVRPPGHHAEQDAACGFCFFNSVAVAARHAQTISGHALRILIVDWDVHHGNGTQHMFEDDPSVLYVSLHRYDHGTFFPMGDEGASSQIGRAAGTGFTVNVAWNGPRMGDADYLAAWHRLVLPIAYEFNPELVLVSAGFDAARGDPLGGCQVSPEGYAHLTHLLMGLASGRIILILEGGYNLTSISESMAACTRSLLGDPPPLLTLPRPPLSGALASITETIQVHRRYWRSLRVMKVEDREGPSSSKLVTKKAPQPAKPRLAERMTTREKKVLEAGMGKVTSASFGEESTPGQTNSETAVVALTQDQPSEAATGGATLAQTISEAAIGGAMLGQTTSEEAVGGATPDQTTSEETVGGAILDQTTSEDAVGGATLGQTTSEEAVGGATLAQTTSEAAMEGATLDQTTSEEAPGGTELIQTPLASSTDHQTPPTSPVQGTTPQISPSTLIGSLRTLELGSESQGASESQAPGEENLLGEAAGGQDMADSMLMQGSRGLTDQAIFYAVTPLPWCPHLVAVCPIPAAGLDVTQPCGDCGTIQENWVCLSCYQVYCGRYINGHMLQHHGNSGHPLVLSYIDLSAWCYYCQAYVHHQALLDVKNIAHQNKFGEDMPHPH
How it was run: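 MOLP8 cells treated with compounds at 5 and 1 μM for 18 h at 37° C.; acetyl-alpha-tubulin measured by Western blot of RIPA extracts (7 μg protein). Bands normalized to total protein or beta-actin, expressed relative to ACY-1215 1 μM (100%), then classed.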

[2] = molecular target: T2, HDAC2 (Homo sapiens, UniProt Q92769); assay: HDAC2 enzyme inhibition assay (fluorimetric); format: biochemical; conditions: 1 μM compound; 3 h pre-incubation; recombinant full length HDAC2; read-out: HDAC2 % inh @ 1 μM
T2 construct: (full length with C-terminal His-tag); His (C); purchased BPS Bioscience Inc. 50002
Protocol: (§1) HDAC6 and HDAC2 Enzyme Inhibition Assay
(§2) A fluorimetric assay was used for testing the activity of compounds of the invention against HDAC6 and HDAC2.
(§3) The compounds were dissolved in DMSO. Serial dilutions were prepared in DMSO and then diluted 1:10 in HDAC assay buffer (Tris-buffered solution, BPS Bioscience Inc. #50031). 5 μl of the compound dilution was added to a 50 μl reaction so that the final concentration of DMSO was 1%.
(§4) The compounds were pre-incubated in duplicate at RT for 3 hours in a mixture containing HDAC assay buffer, 5 μg BSA and recombinant HDAC enzyme (see table above). The enzymatic reactions were initiated by the addition of a fluorogenic, acetylated peptide substrate based on a histone protein (BPS Bioscience Inc. #50037) to a final concentration of 10 μM. The enzymatic reaction proceeded for 30 minutes at 37° C. Then, 50 μl of 2× HDAC Developer, which contains peptidase activity and Trichostatin A (BPS Bioscience Inc. #50030) was added and the plate was incubated at RT for an additional 15 minutes. Fluorescence intensity was measured at an excitation of 360 nm and an emission of 460 nm using a Tecan Infinite M1000 microplate reader.
(§5) Trichostatin A (TSA, Selleckchem #S1045) was used as reference inhibitor.
(§6) The fluorescent intensity data were analyzed using the computer software Graphpad Prism (GraphPad Software, San Diego, CA). 100% activity was defined as the fluorescent intensity (Ft) in the absence of the compound. 0% activity was defined as the fluorescent intensity (Fb) in the absence of the enzyme. The percent activity in the presence of each compound was calculated according to the following equation: % activity=(F−Fb)/(Ft−Fb), where F=the fluorescent intensity in the presence of the compound.

[3] = molecular target: T1, HDAC6; assay: HDAC6 enzyme inhibition assay (fluorimetric); format: biochemical; conditions: 1 μM compound; 3 h pre-incubation; recombinant full length HDAC6; read-out: HDAC6 % inh @ 1 μM
Protocol: as §1, §2, §3, §4, §5, §6

T2 sequence (Q92769 whole entry): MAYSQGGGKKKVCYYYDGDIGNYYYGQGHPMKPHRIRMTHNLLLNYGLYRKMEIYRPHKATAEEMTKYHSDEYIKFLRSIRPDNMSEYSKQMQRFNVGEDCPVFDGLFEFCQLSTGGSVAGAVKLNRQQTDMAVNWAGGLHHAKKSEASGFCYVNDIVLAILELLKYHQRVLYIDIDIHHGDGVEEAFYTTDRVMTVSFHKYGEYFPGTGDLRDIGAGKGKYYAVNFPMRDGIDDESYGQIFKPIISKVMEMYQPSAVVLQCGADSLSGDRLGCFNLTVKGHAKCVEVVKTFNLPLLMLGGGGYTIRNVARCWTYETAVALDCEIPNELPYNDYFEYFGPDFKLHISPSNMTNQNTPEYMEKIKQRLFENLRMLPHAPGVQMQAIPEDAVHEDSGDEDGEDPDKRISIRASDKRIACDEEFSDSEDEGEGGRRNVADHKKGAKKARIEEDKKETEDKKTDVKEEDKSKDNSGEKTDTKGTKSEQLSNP

| Cellular activity @1 uM [1] | Cellular activity @5 uM [1] | inhibition at 1 µM [2] [%] | inhibition at 1 µM [3] [%] | Compound |
| --- | --- | --- | --- | --- |
| ++ (150-300) | ++ (150-300) | 31 | 92 | FC(F)(F)c1nc(-c2ccnc(-c3cc4c(ccn4Cc4ccncc4)cn3)c2)no1 [Example 1al, 3-(2-(1-(Pyridin-4-ylmethyl)-1H-pyrrolo[3,2-c]pyridin-6-yl)pyridin-4-yl)-5-(trifluoromethyl)-1,2,4-oxadiazole] |
| + (50-150) | +++ (>300) | 30 | 90 | CCCCn1cc(CN(C)C)c2cc(-c3cc(-c4noc(C(F)(F)F)n4)ccn3)ncc21 [Example 3, 1-(1-Butyl-5-(4-(5-(trifluoromethyl)-1,2,4-oxadiazol-3-yl)pyridin-2-yl)-1-pyrrolo[2,3-c]pyridin-3-yl)-N,N-dimethylmethanamine] |
| + (50-150) | ++ (150-300) | 14 | 90 | FC(F)(F)c1nc(-c2ccnc(-c3cc4[nH]ccc4cn3)c2)no1 [Example 1ak, 3-(2-(1H-Pyrrolo[3,2-c]pyridin-6-yl)pyridin-4-yl)-5-(trifluoromethyl)-1,2,4-oxadiazole] |
| + (50-150) | ++ (150-300) | 3 | 89 | CCN(CC)CCCOc1ccc(-c2cc(-c3noc(C(F)(F)F)n3)ccn2)nc1 [Example 1c, N,N-Diethyl-3-((4′-(5-(trifluoromethyl)-1,2,4-oxadiazol-3-yl)-[2,2′-bipyridin]-5-yl)oxy)propan-1-amine] |
| +++ (>300) | +++ (>300) | 19 | 98 | CN(C)C(=O)c1cc2cc(-c3cc(-c4noc(C(F)(F)F)n4)ccn3)ncc2n1C [Example 1u, N,N,1-Trimethyl-5-(4-(5-(trifluoromethyl)-1,2,4-oxadiazol-3-yl)pyridin-2-yl)-1H-pyrrolo[2,3-c]pyridine-2-carboxamide] |
| ++ (150-300) | +++ (>300) | 16 | 95 | COCCn1ccc2cc(-c3cc(-c4noc(C(F)(F)F)n4)ccn3)ncc21 [Example 1x, 3-(2-(1-(2-Methoxyethyl)-1H-pyrrolo[2,3-c]pyridin-5-yl)pyridin-4-yl)-5-(trifluoromethyl)-1,2,4-oxadiazole] |
| + (50-150) | ++ (150-300) | 18 | 78 | CN1CCC(C(=O)Nc2ccc(-c3cc(-c4noc(C(F)(F)F)n4)ccn3)nc2)CC1 [Example 1ac, 1-Methyl-N-(4′-(5-(trifluoromethyl)-1,2,4-oxadiazol-3-yl)-[2,2′-bipyridin]-5-yl)piperidine-4-carboxamide] |
| − (<50) | ++ (150-300) | 16 | 71 | FC1(F)CCN(CCCOc2ccc(-c3cc(-c4noc(C(F)(F)F)n4)ccn3)nc2)CC1 [Example 1f, 3-(5′-(3-(4,4-Difluoropiperidin-1-yl)propoxy)-[2,2′-bipyridin]-4-yl)-5-(trifluoromethyl)-1,2,4-oxadiazole] |
| − (<50) | ++ (150-300) | 10 | 69 | CN(CC1CC1)c1ccc(-c2cc(-c3noc(C(F)(F)F)n3)ccn2)nc1 [Example 1j, N-(Cyclopropylmethyl)-N-methyl-4′-(5-(trifluoromethyl)-1,2,4-oxadiazol-3-yl)-[2,2′-bipyridin]-5-amine] |
| + (50-150) | ++ (150-300) | 6 | 86 | Cn1cc(-c2cn[nH]c2)c2cc(-c3cc(-c4noc(C(F)(F)F)n4)ccn3)ncc21 [Example 1ap, 3-(2-(1-Methyl-3-(1H-pyrazol-4-yl)-1H-pyrrolo[2,3-c]pyridin-5-yl)pyridin-4-yl)-5-(trifluoromethyl)-1,2,4-oxadiazole] |
| + (50-150) | ++ (150-300) | 15 | 81 | FC(F)(F)c1nc(-c2ccnc(-c3cc4c(ccn4Cc4ccccn4)cn3)c2)no1 [Example 1aw, 3-(2-(1-(Pyridin-2-ylmethyl)-1H-pyrrolo[3,2-c]pyridin-6-yl)pyridin-4-yl)-5-(trifluoromethyl)-1,2,4-oxadiazole] |
| + (50-150) | +++ (>300) | 3 | 66 | CCCn1cc(-c2cn[nH]c2)c2cc(-c3cc(-c4noc(C(F)(F)F)n4)ccn3)ncc21 [Example 1v, 3-(2-(1-Propyl-3-(1H-pyrazol-4-yl)-1H-pyrrolo[2,3-c]pyridin-5-yl)pyridin-4-yl)-5-(trifluoromethyl)-1,2,4-oxadiazole] |
| + (50-150) | + (50-150) | 5 | 85 | O=C(CC1CCC1)Nc1ccnc(-c2cc(-c3noc(C(F)(F)F)n3)ccn2)c1 [Example 1ae, 2-Cyclobutyl-N-(4′-(5-(trifluoromethyl)-1,2,4-oxadiazol-3-yl)-[2,2′-bipyridin]-4-yl)acetamide] |
| + (50-150) | ++ (150-300) | 46 | 97 | FC1(F)CCN(CCNc2ccnc(-c3cc(-c4noc(C(F)(F)F)n4)ccn3)c2)CC1 [Example 1z, N-(2-(4,4-Difluoropiperidin-1-yl)ethyl)-4′-(5-(trifluoromethyl)-1,2,4-oxadiazol-3-yl)-[2,2′-bipyridin]-4-amine] |
| ++ (150-300) | ++ (150-300) | 29 | 95 | O=C(Nc1ccnc(-c2cc(-c3noc(C(F)(F)F)n3)ccn2)c1)C1CCCNC1 (stereo not shown) [Example 5, N-(4′-(5-(trifluoromethyl)-1,2,4-oxadiazol-3-yl)-[2,2′-bipyridin]-4-yl)piperidine-3-carboxamide] |
| + (50-150) | ++ (150-300) | 11 | 73 | O=C(Cc1ccccc1)Nc1ccc(-c2cc(-c3noc(C(F)(F)F)n3)ccn2)nc1 [Example 1q, 2-Phenyl-N-(4′-(5-(trifluoromethyl)-1,2,4-oxadiazol-3-yl)-[2,2′-bipyridin]-5-yl)acetamide] |
